As usually defined, the EC50 is the concentration that produces a half-maximal response.

Assay [1] addresses T1, human glucagon-like peptide 1 receptor (GLP-1R) (Homo sapiens, UniProt P43220).
T1 construct: expressed in transfected cells
The experiment in a line: GLP-1 receptor efficacy assay (cAMP AlphaScreen, CHO cells). The format is cell-based. The following applies: Table 1A; for EC50: CHO cells expressing human GLP-1-R, cAMP, read-out: EC50 hGLP-1R CHO-K1; for Ratio GLP-1/Glucagon: EC50 [GLP-1R]/EC50 [Glucagon-R]. Put shortly:
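Stably transfected CHO clones expressing human GLP-1R or glucagon receptor were treated with increasing peptide concentrations for 15 min at room temperature in KRBH containing 0.1 mM IBMX. After lysis, cAMP was quantified by AlphaScreen; EC50 and efficacy relative to GLP-1 or glucagon reference came from curve fitting.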
In general terms: Bead proximity is the source of the signal in Alpha formats.

Assay [2] addresses T2, endogenous GLP-1 receptors (Mus musculus, UniProt O35659).
T2 construct: Agonistic activity of the test compounds on endogenous GLP-1 receptors; endogenous in cells
T2 sequence (O35659 22-463): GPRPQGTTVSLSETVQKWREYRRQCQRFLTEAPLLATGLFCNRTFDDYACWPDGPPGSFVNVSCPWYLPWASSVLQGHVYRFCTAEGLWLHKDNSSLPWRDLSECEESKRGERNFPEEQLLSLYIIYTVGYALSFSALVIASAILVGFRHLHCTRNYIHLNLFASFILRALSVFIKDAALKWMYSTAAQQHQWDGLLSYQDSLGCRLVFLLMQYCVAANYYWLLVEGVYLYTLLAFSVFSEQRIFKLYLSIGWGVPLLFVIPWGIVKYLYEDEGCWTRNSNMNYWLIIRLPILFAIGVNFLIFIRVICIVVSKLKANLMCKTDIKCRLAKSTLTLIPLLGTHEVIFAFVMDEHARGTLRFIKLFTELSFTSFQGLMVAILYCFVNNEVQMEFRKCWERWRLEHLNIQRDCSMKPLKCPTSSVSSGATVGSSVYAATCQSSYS
The experiment in a line: Agonistic activity on endogenous GLP-1 receptor (cAMP, murine insulinoma cell line). The assay is classed as cell-based. The following applies: intracellular cAMP, 15 minutes at 26° C.; read-out: EC50 GLP-1R (murine insulinoma cells). Put shortly: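 Murine insulinoma cells were exposed 15 min at 26° C in KRBH with 0.1% DMSO to compound or GLP-1 ([…]), then cAMP was measured by AlphaScreen against a standard curve, in quadruplicate. pEC50 came from curve fits; % CTL was normalised to the maximal GLP-1 cAMP response.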

Assay [3] in a line: Oral glucose tolerance test (OGTT). The assay is classed as in vivo, C57BL/6J mice. As to conditions: blood glucose AUC 0-120 min, 10 nmol/kg s.c. 4 h before oral glucose 2 g/kg. As for the experimental part:
Male C57BL/6J mice were fasted for 10 h before they received an oral glucose bolus of 2 g/kg body weight. Peptides were dissolved in saline buffered with 25 mM phosphate and administered at a dose of 10 nmol/kg body weight by subcutaneous injection 4 h before the glucose bolus. Control animals received a vehicle injection only. Group size was 7 animals per group. A pre-dose and a pre-glucose (0 min) blood sample were obtained by tail bleeding and blood glucose was measured with a glucometer. Additional samples of tail blood for measuring blood glucose were obtained 15 min, 30 min, 60 min, 90 min and 120 min after the glucose challenge. […] Calculation of AUC was done by the trapezoidal rule without baseline correction. The data are presented as mean±S.E.M. Statistical comparisons were conducted by one-way ANOVA followed by Tukey's post test. Vehicle alone was used as a control.

*1 amine or outer side, *2 acyl side, *3 side chain or, on linkers, in order; H or OH if unused. Where a SMILES comes first, the peptide text is derived from it. Side-chain parts run from the residue outwards. [ ]: non-standard residue; d: D form. The star is where a group is joined. γGlu = O=C(O)[C@H](CCC(=O)[*:2])N[*:1]; Palmitoyl = CCCCCCCCCCCCCCCC(=O)*; Aib = CC(C)(N)C(=O)O

T1 sequence (P43220 24-463): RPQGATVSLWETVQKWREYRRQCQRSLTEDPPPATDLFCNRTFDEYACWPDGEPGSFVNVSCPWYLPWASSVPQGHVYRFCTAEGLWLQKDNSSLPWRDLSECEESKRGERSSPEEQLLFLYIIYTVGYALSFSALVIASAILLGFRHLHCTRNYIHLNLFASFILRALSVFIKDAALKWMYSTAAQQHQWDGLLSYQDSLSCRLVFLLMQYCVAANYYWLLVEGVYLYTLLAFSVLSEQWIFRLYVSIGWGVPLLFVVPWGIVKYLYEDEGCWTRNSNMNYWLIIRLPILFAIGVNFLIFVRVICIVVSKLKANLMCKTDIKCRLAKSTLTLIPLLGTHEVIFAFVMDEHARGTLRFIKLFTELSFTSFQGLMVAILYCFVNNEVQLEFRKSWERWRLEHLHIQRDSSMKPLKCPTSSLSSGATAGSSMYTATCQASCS

For `CCCCCCCCCCCCCCCC(=O)N[C@@H](CCC(=O)NCCCC[C@H](NC(=O)[C@H](CCC(=O)O)NC(=O)[C@H](CC(=O)O)NC(=O)[C@H](CC(C)C)NC(=O)[C@H](Cc1ccc(O)cc1)NC(=O)[C@H](CCCCN)NC(=O)[C@H](CO)NC(=O)[C@H](Cc1ccc(O)cc1)NC(=O)[C@H](CC(=O)O)NC(=O)[C@H](CO)NC(=O)[C@@H](NC(=O)[C@H](Cc1ccccc1)NC(=O)[C@@H](NC(=O)CNC(=O)[C@H](CCC(N)=O)NC(=O)C(C)(C)NC(=O)[C@@H](N)Cc1c[nH]cn1)[C@@H](C)O)[C@@H](C)O)C(=O)N[C@@H](C)C(=O)N[C@@H](C)C(=O)N[C@@H](CCCCN)C(=O)N[C@@H](CC(=O)O)C(=O)N[C@@H](Cc1ccccc1)C(=O)N[C@H](C(=O)N[C@@H](CCC(=O)O)C(=O)N[C@@H](Cc1c[nH]c2ccccc12)C(=O)N[C@@H](CC(C)C)C(=O)N[C@@H](CC(C)C)C(=O)N[C@@H](CO)C(=O)N[C@@H](C)C(N)=O)[C@@H](C)CC)C(=O)O` [Compound 4, H-H-Aib-QGTFTSDYSKYLDE-K(Hexadecanoyl-isoGlu)-AAKDFIEWLLSA-NH2] (H-H[Aib]QGTFTSDYSKYLDEK([γGlu-Palmitoyl])AAKDFIEWLLSA-NH2), in assay [1], the EC50 came out at 0.38 nM and the “Ratio GLP-1/Glucagon” value was found to be 0.24. Moreover, the EC50 in assay [2] was found to be 0.95 nM. For the same molecule, the “AUC (% Ctrl)” value in assay [3] is listed as 65 % Ctrl.
Regarding `CCCCCCCCCCCCCCCC(=O)N[C@@H](CCC(=O)NCCCC[C@H](NC(=O)[C@H](CO)NC(=O)[C@H](CC(=O)O)NC(=O)[C@H](CC(C)C)NC(=O)[C@H](Cc1ccc(O)cc1)NC(=O)[C@H](CCCCN)NC(=O)[C@H](CO)NC(=O)[C@H](Cc1ccc(O)cc1)NC(=O)[C@H](CC(=O)O)NC(=O)[C@H](CO)NC(=O)[C@@H](NC(=O)[C@H](Cc1ccccc1)NC(=O)[C@@H](NC(=O)CNC(=O)[C@H](CCC(N)=O)NC(=O)C(C)(C)NC(=O)[C@@H](N)Cc1c[nH]cn1)[C@@H](C)O)[C@@H](C)O)C(=O)N[C@@H](C)C(=O)N[C@@H](C)C(=O)N[C@@H](Cc1c[nH]cn1)C(=O)N[C@@H](CC(=O)O)C(=O)N[C@@H](Cc1ccccc1)C(=O)N[C@H](C(=O)N[C@@H](CCC(=O)O)C(=O)N[C@@H](Cc1c[nH]c2ccccc12)C(=O)N[C@@H](CC(C)C)C(=O)N[C@@H](CCC(=O)O)C(=O)N[C@@H](CO)C(=O)N[C@@H](C)C(N)=O)C(C)C)C(=O)O` [Compound 5, H-H-Aib-QGTFTSDYSKYLDS-K(Hexadecanoyl-isoGlu)-AAHDFVEWLESA-NH2] (H-H[Aib]QGTFTSDYSKYLDSK([γGlu-Palmitoyl])AAHDFVEWLESA-NH2), in assay [1], the EC50 stood at 0.16 nM and the “Ratio GLP-1/Glucagon” value is recorded as 0.35. In assay [2], the EC50 is 0.54 nM. The “AUC (% Ctrl)” value in assay [3] is 46 % Ctrl.
Consider `CCCCCCCCCCCCCCCC(=O)N[C@@H](CCC(=O)NCCCC[C@H](NC(=O)[C@H](CO)NC(=O)[C@H](CC(=O)O)NC(=O)[C@H](CC(C)C)NC(=O)[C@H](Cc1ccc(O)cc1)NC(=O)[C@H](CCCNC(=N)N)NC(=O)[C@H](CO)NC(=O)[C@H](Cc1ccc(O)cc1)NC(=O)[C@H](CC(=O)O)NC(=O)[C@H](CO)NC(=O)[C@@H](NC(=O)[C@H](Cc1ccccc1)NC(=O)[C@@H](NC(=O)CNC(=O)[C@H](CCC(N)=O)NC(=O)[C@H](CO)NC(=O)[C@@H](N)Cc1c[nH]cn1)[C@@H](C)O)[C@@H](C)O)C(=O)N[C@@H](C)C(=O)N[C@@H](C)C(=O)N[C@@H](CCC(=O)O)C(=O)N[C@@H](CC(=O)O)C(=O)N[C@@H](Cc1ccccc1)C(=O)N[C@H](C(=O)N[C@@H](CCC(=O)O)C(=O)N[C@@H](Cc1c[nH]c2ccccc12)C(=O)N[C@@H](CC(C)C)C(=O)N[C@@H](CC(C)C)C(=O)N[C@@H](CCCNC(=N)N)C(=O)N[C@@H](C)C(N)=O)C(C)C)C(=O)O` [Compound 6, H-HSQGTFTSDYSRYLDS-K(Hexadecanoyl-isoGlu)-AAEDFVEWLLRA-NH2] (H-HSQGTFTSDYSRYLDSK([γGlu-Palmitoyl])AAEDFVEWLLRA-NH2), for which, in assay [1], the EC50 is 0.35 nM and the “Ratio GLP-1/Glucagon” value is reported as 0.76. In addition, the EC50 in assay [2] was determined as 1.14 nM. Further, the “AUC (% Ctrl)” value in assay [3] was 50 % Ctrl.
Turning to `CCCCCCCCCCCCCCCC(=O)N[C@@H](CCC(=O)NCCCC[C@H](NC(=O)[C@H](CO)NC(=O)[C@H](CC(=O)O)NC(=O)[C@H](CC(C)C)NC(=O)[C@H](Cc1ccc(O)cc1)NC(=O)[C@H](CCCCN)NC(=O)[C@H](CO)NC(=O)[C@H](Cc1ccc(O)cc1)NC(=O)[C@H](CC(=O)O)NC(=O)[C@H](CO)NC(=O)[C@@H](NC(=O)[C@H](Cc1ccccc1)NC(=O)[C@@H](NC(=O)CNC(=O)[C@H](CCC(N)=O)NC(=O)[C@H](CO)NC(=O)[C@@H](N)Cc1c[nH]cn1)[C@@H](C)O)[C@@H](C)O)C(=O)N[C@@H](C)C(=O)N[C@@H](C)C(=O)N[C@@H](CCC(=O)O)C(=O)N[C@@H](CC(=O)O)C(=O)N[C@@H](Cc1ccccc1)C(=O)N[C@H](C(=O)N[C@@H](CCC(=O)O)C(=O)N[C@@H](Cc1c[nH]c2ccccc12)C(=O)N[C@@H](CC(C)C)C(=O)N[C@@H](CC(C)C)C(=O)N[C@@H](CCCNC(=N)N)C(=O)N[C@@H](C)C(N)=O)C(C)C)C(=O)O` [Compound 7, H-HSQGTFTSDYSKYLDS-K(Hexadecanoyl-isoGlu)-AAEDFVEWLLRA-NH2] (H-HSQGTFTSDYSKYLDSK([γGlu-Palmitoyl])AAEDFVEWLLRA-NH2), in assay [1], the EC50 is 0.27 nM and the “Ratio GLP-1/Glucagon” value is given as 0.60. The EC50 in assay [2] came out at 0.84 nM. The “AUC (% Ctrl)” value in assay [3] is 57 % Ctrl.
The like results for `CCCCCCCCCCCCCCCC(=O)N[C@@H](CCC(=O)NCCCC[C@H](NC(=O)[C@H](CO)NC(=O)[C@H](CC(=O)O)NC(=O)[C@H](CC(C)C)NC(=O)[C@H](Cc1ccc(O)cc1)NC(=O)[C@H](CCCCN)NC(=O)[C@H](CO)NC(=O)[C@H](Cc1ccc(O)cc1)NC(=O)[C@H](CC(=O)O)NC(=O)[C@H](CO)NC(=O)[C@@H](NC(=O)[C@H](Cc1ccccc1)NC(=O)[C@@H](NC(=O)CNC(=O)[C@H](CCC(N)=O)NC(=O)[C@H](CO)NC(=O)[C@@H](N)Cc1c[nH]cn1)[C@@H](C)O)[C@@H](C)O)C(=O)N[C@@H](C)C(=O)N[C@@H](C)C(=O)N[C@@H](Cc1c[nH]cn1)C(=O)N[C@@H](CC(=O)O)C(=O)N[C@@H](Cc1ccccc1)C(=O)N[C@H](C(=O)N[C@@H](CCC(=O)O)C(=O)N[C@@H](Cc1c[nH]c2ccccc12)C(=O)N[C@@H](CC(C)C)C(=O)N[C@@H](CC(C)C)C(=O)N[C@@H](CO)C(N)=O)C(C)C)C(=O)O` [Compound 8, H-HSQGTFTSDYSKYLDS-K(Hexadecanoyl-isoGlu)-AAHDFVEWLLS-NH2] (H-HSQGTFTSDYSKYLDSK([γGlu-Palmitoyl])AAHDFVEWLLS-NH2) were, in that order, 0.41 nM, 1.41, 0.95 nM and 50 % Ctrl.

Source of the values: patent US10253081B2, “Glucagon analogues” (Zealand Pharma A/S, priority 2012, dated 2019).
